Measured values from publication PMC7385626 (Scientific Reports, 2020).

Legend:
[1] = system: S. enteridis ATCC13076; experiment: Disc diffusion assay; type: cell-based, Salmonella Enteritidis
Experimental: (§1) Therefore, the pathogen bacterial flora and the opportunistic agents may be taken into consideration both in the management of cancer patients and in individual susceptibility to cancer. Indeed, dual acting factors with antimicrobial and antiproliferative potentials can result in improved therapeutic efficacy for cancer cell patients or reduced cancer predisposition. […]. In this study, 10 microbial cultures of this part, belonging to ten types of bacterial were used. The culture was grown in Mueller–Hinton Broth (Merck) for all the bacterial strains at 36 °C. Antimicrobial test was carried out by using disc-diffusion assay utilizing 100 µL of suspension with 10^8 CFU/mL of bacteria and 10^6 CFU/mL of yeast spread on Nutrient Agar and Potato Dextrose Agar, respectively. Also, the blank disc (Oxoid = 6 mm in diameter) was impregnated with 20 µL of each substance (105 µg/disc) and placed on the inoculated agar. Negative controls ([…]) were prepared using the same solvent (water) employed to dissolve each substance. […]. The inoculated plate was incubated at 36 °C for clinical bacterial strains. Antimicrobial activities were evaluated by obtaining the zone of inhibitory effect against the test organisms.

[2] = system: HeLa cells; experiment: Cell migration assay; type: cell-based
From the text: Ag(I) compounds at 30% maximal inhibitory concentration (IC30) managed to inhibit tumor cell migration with low cytotoxicity (data not shown). In addition, this cytotoxic ability of Ag(I) compounds at 20% maximal inhibitory concentration (IC20) allowed the suppression of cell migration without damaging the cell membrane at non-toxic concentrations (data not shown). […] While untreated HeLa cells filled 100% of the gap, compounds 2, 3, and 4 managed to spread to 9%, %11, 15% of the gap, respectively (Figure S16; Supplementary Material, Day 2). In addition, the media with Ag(I) compounds were replaced with fresh media following the 72-h incubation, but the HeLa cells could not fill the gap (data not shown). […]. The result was consistent with that of the other studies on Ag(I) complexes containing different ligands[73],[74],[78],[80],[81],[83]–[87].
The migration feature of the 2, 3 and 4 was monitored using the cell migration method. Briefly, an equal number of HeLa cells (3.5 × 10^4 HeLa cells) were seeded into the two reservoirs separated by a 500 µm thick wall and allowed to grow to 90–95 % confluence. […]. The closure of the gap by the cells was photographed 0, 1 and 2 days after incubation by using a phase contrast inverted microscope.
Fig. S16. Effect of 2, 3 and 4 on the migration of HeLa cell line. […]

[3] = system: C6; experiment: BrdU Cell Proliferation Assay (BCPA); type: cell-based
From the text: (§2) The antiproliferative activities of Ag(I) molecules and the starting molecules of the parent molecules, N-bishydeten and [Ag(CN)2]^− compound, on cells, were monitored utilizing by the BrdU Cell Proliferation Assay (BCPA) (Fig. 6).
(§3) The antiproliferative activity of the 2, 3, 4, [Ag(CN)2]^− and 5FU against various cell lines (HeLa ATCC CCL-2, C6 cells ATCC CCL-107, HT29 ATCC HTB-38, and Vero ATCC CCL-81) were preserved and maintained in Dulbecco’s modified eagle’s medium, supplemented with %2 antibiotic (Streptomycin-Penicillin) solution and 10% fetal bovine serum.
(§4) The cell suspension including 5×10^3 cells in 100 µL was supplied into the well cell plates (96-well cell). The therapies of these cells with 2, 3, 4 and [Ag(CN)2]^− in DMSO (max 0.1% DMSO) and 5-Florouracil (5 FU) molecule in DMSO (max 0.1% DMSO) separately at concentration 0.25, 0.50, 1.00, 1.50, 2.00, 2.50, 3.75, and 5.00 µg/mL were carried out. The last volume was adapted to 200 µL by mixture and DMEM and also incubated for 24 h at 37°C with 5% CO2. The antiproliferative activities of the 2, 3, 4 and [Ag(CN)2]^− were determined with using BrdU Cell proliferation ELISA Kit conforming to manufacturer’s assay.
(§5) IC50 values the concentration of a factor which required for other method of in vitro.

[4] = system: HeLa; experiment: BrdU Cell Proliferation Assay (BCPA); type: cell-based
From the text: as §2, §3, §4, §5

[5] = system: Vero; experiment: BrdU Cell Proliferation Assay (BCPA); type: cell-based
From the text: as §2, §3, §4, §5

[6] = system: P. aeruginosa ATCC9027; experiment: Disc diffusion assay; type: cell-based, Pseudomonas Aureginosa
Experimental: as §1

[7] = system: S. aureus ATCC29213; experiment: Disc diffusion assay; type: cell-based, Staphylococcus aureus
Experimental: as §1

[8] = system: C6, HeLa, and HT29 cells; experiment: DNA laddering (internucleosomal DNA fragmentation); type: cell-based
Experimental: Here, appearances of apoptotic morphology and DNA fragmentation may be a result of the activation of the extrinsic apoptotic pathways, including Ca^2+ dependent endonucleases. Apoptosis assay is determined by controlling cell death which included cleavage of DNA molecule into regular fragments. In this part, we observed that our molecules could act through containing apoptosis on some cells. More studies were conducted to obtain the antiproliferative and apoptotic potentials of Ag molecules which are consistent with this work[70],[75],[75],[79],[80].
By growing C6, HeLa, and HT29 cells were incubated with the molecules at 37 °C for overnight, DNA molecule was isolated in this part, and DNA fragmentation was visualized by agarose gel electrophoresis. […] A-HT29: 1, DNA standard; 2, HT29 Control; 3, HT29 + 2; 4, HT29 + 3; 5, HT29 + 4. B-C6: 1, DNA standard; 2, C6 + 2; 3, C6 + 3; 4, C6 + 4; 5, C6 Control. C-HeLa: 1, DNA standard; 2, HeLa + 2; 3, HeLa + 3; 4, HeLa + 4; 5, HeLa Control.
. Treated cell was harvested using a plastic scraper, and these fixed with 70 % ethanol, and also incubated for 48 hours. The ethanol amount was removed by centrifugation and air drying. The cell pellet was resuspended in 55 μL phosphate-citrate buffer (consisting of 192 parts of 0.2 M Na2HPO4 and 8 parts of 0.1 M citric acid, pH 7.8), and incubated at 37°C for 30 min in a shaker incubator. A 45 μL of supernatant was transferred to a microsantrifuge tube, mixed with 5 μL 0.25% Tween20 solution and 5 μL RNase A enzyme solution and also incubated for 30 min in a shaker incubator. […]

Substance	inhibition zones, S. enteridis ATCC13076 [1] [mm]	part of the gap filled by HeLa cells (migration) [2] [%]	IC50 [3] [µM]	IC50 [4] [µM]	IC50 [5] [µM]	inhibition zones, P. aeruginosa ATCC9027 [6] [mm]	inhibition zones, S. aureus ATCC29213 [7] [mm]	DNA fragmentation (DNA laddering) [8]
[Cd(N-bishydeten)]4[Ag(CN)2]8[Ag(CN)]2 [Complex 4]	36 ± 1.0	15	0.6 ± 0.09	0.61 ± 0.09	0.63 ± 0.09	30 ± 0.58	30 ± 1.0	induced the organization of DNA fragmentation
[Cu(N-bishydeten)Ag3(CN)5] [Complex 2]	30 ± 0.58	9	0.95 ± 0.09	3.64 ± 0.42	2.81 ± 0.32	30 ± 1.0	37 ± 1.0	induced the organization of DNA fragmentation
[Zn(N-bishydeten)Ag3(CN)5] [Complex 3]	33 ± 0.58	11	3.34 ± 0.34	3.19 ± 0.37	3.06 ± 0.35	30 ± 1.0	25 ± 0.58	induced the organization of DNA fragmentation
